The text below walks through data of patent US5552267A, “Solution for prolonged organ preservation” (priority 1994, dated 1996).

For assay [1], the system named is lung. Put plainly: orthotopic rat left lung transplantation, cGMP series (hemodynamics, oxygenation, recipient survival). The assay is classed as in vivo, rat (male Lewis). The procedure: Orthotopic rat left lung transplantation was accomplished using inbred male Lewis rats (250-300 gms), using a modification of a previously described technique^29. The donor rat was anesthetized and heparinized (500 U intravenously), and endotracheal intubation was performed by inserting a 16 gauge angiocatheter into the trachea using blunt cervical dissection, after which the rat was ventilated with room air at a constant rate (100 breaths/minute) and tidal volume (2.5 ml), using a Harvard rodent ventilator. […] The pulmonary artery (PA) and pulmonary vein (PV) were divided, the bronchus ligated with the lung partially inflated and then divided, and the lung removed. The vascular stumps were each pulled through a small plastic cylinder, and a lip of vessel was turned back around the edge and secured in place with a suture to form a "cuff." A small plastic cylinder was inserted into the bronchial stump and secured, and the lung was then wrapped in gauze and submerged in cold preservation solution for the desired interval.
The recipient rat (gender/size/strain-matched) was similarly anesthetized and intubated (ventilated with 100% oxygen), but not heparinized. A left thoracotomy was performed, the hilum was dissected, and the left bronchus, PA, and PV were isolated, cross-clamped, divided and the native lung was removed from the field. The PA and PV stumps were rinsed with heparinized saline to remove any clot. The donor lung was brought onto the surgical field, and the cylinder (bronchus) and cuffs (PA and PV) were connected rapidly to their respective structures with a simple staying suture. This cuff technique permitted rapid approximation of donor and recipient tissues with no contact of a foreign substance with the luminal vascular surface. The hilar cross-clamp was released, re-establishing blood flow, and the bronchus tie was removed, enabling gas exchange. A snare was then passed around the right PA, and a Millar catheter (2F; Millar Instruments,Houston, Tex.) was introduced through a small hole (surrounded by a pursestring) into the main PA; similarly, a Millar catheter was introduced into the left atrium (LA). A flow probe (Transonics, Ithaca, N.Y.) was then placed around the main PA. Arterial blood gas sampling performed via the left femoral artery.
Online hemodynamic monitoring was accomplished using MacLab and a Macintosh IIci computer. The hemodynamic parameters that were measured included PA pressure (mm Hg), blood flow (ml/min), LA pressure (mm Hg), as well as arterial oxygen tension (mm Hg) during inspiration of 100% oxygen; pO2 was analyzed with a model ABL-2 dissolved gas analyzer (Radiometer, Copenhagen, Denmark). Pulmonary vascular resistances (PVRs) were calculated as [mean PA pressure-LA pressure]/PA flow. The native lung supported the recipient during the period of warm ischemia (the period during which the donor lung was removed from cold preservation until the time of reperfusion, <10 min. in all instances), but immediately following rapid hemodynamic instrumentation and acquisition of baseline measurements, the native (right) PA was then ligated, and serial measurements (representative solely of the transplanted lung) were taken every five minutes for 30 minutes. Because the native lung was effectively removed from the circulation by ligation of the right PA, these measurements represent function of the transplanted lung. Recipient death was identified by the cessation of cardiac mechanical activity observed through the thoracotomy.
Preservation solutions were freshly made and coded by a technician not otherwise involved in the experiments, according to a general plan which included both control and experimental groups. […]

Assay [2] has as its system neutrophil infiltration of lung graft. The assay is described as follows: lung graft myeloperoxidase assay, cGMP series. Format: in vivo, rat. The conditions noted are these: 6 h in EC then transplantation. The procedure: Thirty minutes following restoration of blood flow, transplanted lungs were excised, rinsed briskly in physiologic saline, and snap frozen in liquid nitrogen until the time of assay. These lungs were then homogenized in phosphate buffer (50 mM; pH 6.0, 5 ml/gm of tissue) containing hexadecyltrimethylammonium bromide (0.5%; HTAB, [Sigma]) and frozen at -80° C. The myeloperoxidase assay was performed, as described^32, by thawing the sample, centrifuging at 40,000 g for 15 minutes at 4° C., and decanting the supernatant, which was assayed for myeloperoxidase activity using standard chromogenic spectrophotometric technique: test sample (0.03 ml) was added to sample buffer (0.97 ml of 50 mM phosphate buffer, pH 6.0) containing O-dianisidine dihydrochloride (Sigma), hydrogen peroxide (0.006%), and change in absorbance at 460 nm was measured over 1 min (increase in OD was linear over this time interval).

Assay [3] concerns cGMP-dependent protein kinase. The conditions noted are these: vs cAMP-dependent protein kinase; cited from earlier work.
Assay [4] concerns neutrophil infiltration of cardiac graft. Put plainly: graft myeloperoxidase activity/histology, nitric oxide series. The assay is classed as in vivo, rat. The conditions noted are these: 12 h; NTG 0.1 mg/ml in LR. The procedure: Ten minutes following restoration of blood flow, transplanted hearts were excised and the aortic root was flushed for 5 minutes (rate of 2 ml/minute controlled by roller pump) with normal saline (Baxter, Edison, N.J.), the atria and great vessels were removed, and intracavitary blood was evacuated. Remaining ventricular pieces were weighed, homogenized, and myeloperoxidase activity measured as described^10. For histologic study, cardiac graft samples were fixed in an ascending series of aldehydes, embedded, sectioned, and stained with hematoxylin and eosin.

The subject of assay [5] is lung. Put plainly: orthotopic rat left lung transplantation, nitroglycerin series. The assay is classed as in vivo, rat (male Lewis).
Assay [6] has as its system graft tissue oxidant stress. The assay is described as follows: thiobarbituric acid reactive substances (TBARs). The assay is classed as in vivo, rat. The conditions noted are these: NTG in EC, 6 h. As to the method: Thirty minutes following ligation of the native right pulmonary artery, or at the time of recipient death, transplanted lungs were removed, rinsed briskly in physiologic saline, and snap frozen in liquid nitrogen until the time of myeloperoxidase or TBARs assay.
The assay was performed by homogenizing tissue in 1.15% KCl (10 ml/gm of tissue). To 0.2 ml of 10% (w/v) tissue homogenate, the following was added; 0.2 mL of 8.1% sodium dodecyl sulfate (SDS; Sigma), 1.5 mL of 20% acetic acid solution (pH 3.5), 1.5 mL of 0.8% aqueous solution of thiobarbituric acid (Sigma), and 0.6 mL of double distilled water. This mixture was heated to 95° C. for 60 minutes followed by rapid cooling to room temperature. An organic extraction was performed by adding 1.0 mL of double distilled water and 5.0 mL of n-butanol:pyridine (15:1, v/v), vortexing, and then centrifuging at 4000 rpm for 10 minutes. The water-immiscible (organic) layer was recovered for measurement of absorbance at 532 nm. Experiments were performed using 1,1,3,3,-tetramethoxypropane as a standard, with the level of lipid peroxides expressed as nmol of malondialdehyde (MDA)/mg protein. Protein content was determined by the method of Lowry et. al^38.

The subject of assay [7] is cGMP. Put plainly: tissue cGMP levels (radioimmunoassay, unpublished). The conditions noted are these: NTG in preservation solution.
Assay [8] relates to nitric oxide in expired air. The following applies: in vivo; cited from earlier work.
For assay [9], the system named is heart. The following applies: in vivo; cited from earlier work.
Setting [10] is: 6 h in EC, 8-Br-cGMP 0.5 mM where added.
The mark [11] stands for this setting: 6 h in EC, NTG 0.1 mg/mL where added.

Turning to `Nc1nc2c(nc(Br)n2[C@@H]2O[C@@H]3COP(=O)(O)O[C@H]3[C@H]2O)c(=O)[nH]1` [8-Br-cGMP, 8-bromoguanosine-3'5' cyclic monophosphate], in [1] (4 h preservation in LR), the recipient survival came to 86%. In assay [1] (setting [10]), the arterial oxygenation is on record as 474±41 mm Hg, the “pulmonary arterial blood flow” value worked out at 26 ± 2.3 mL/min, the pulmonary vascular resistance was 1.1±0.14 Woods units×10^-3 and the recipient survival came to 100%. For the same molecule, the “concentration of maximal beneficial effect” value in assay [1] (range 0.005 to 0.5 mM, 6 h in EC) turned out to be 0.5 mM. For the same molecule, the “myeloperoxidase activity (dAbs 460 nm/min)” value in [2] is listed as 1.75±0.13 dAbs 460 nm/min. Further, the “times more potent at stimulating cGMP- than cAMP-dependent protein kinase” value in [3] is 500 times.

As to `O=[N+]([O-])OCC(CO[N+](=O)[O-])O[N+](=O)[O-]` [NTG, nitroglycerin], the “neutrophil infiltration” value in assay [4] was “marked decrease in neutrophil infiltration”. In addition, in assay [5] (30 mL at constant pressure during harvest), the “pulmonary artery flushing time” value turned out to be 86.4 ± 4.9 s. Also, the recipient survival in assay [5] (6 h in EC, 30 min, supplements NTG 0.1 mg/mL, hydralazine 0.02 μg/mL) stood at 100%. Also, in [5] (setting [11]), the arterial oxygenation is reported as 501±31 mm Hg, the pulmonary arterial flow was determined as 21.4 ± 2.9 mL/min and the pulmonary vascular resistance was 1.4±0.1 ×10^3 Woods units. In addition, in [5] (range 0.001 to 0.1 mg/mL), the “concentration of maximal beneficial effect” value stood at 0.1 mg/mL. The “graft oxidant stress, TBARs” value in assay [6] is “reduced graft oxidant stress”. Moreover, the “tissue cGMP levels” value in assay [7] is “augments tissue cGMP levels”. The “nitric oxide in expired air” value in assay [8] is reported as “increase nitric oxide in expired air”. In assay [9], the “effect in cardiac ischemia models” value was “blunt myocardial injury and neutrophil accumulation during reperfusion”.
